Test results published in patent US20120157439A1, “RAF INHIBITOR COMPOUNDS AND METHODS OF USE THEREOF” (GENENTECH, INC., priority 2009, published 2012).
Like-named read-outs stand apart in the source and are kept apart here.

Target: T1, V600E full-length B-Raf (Homo sapiens, UniProt P15056, V600E)
T1 construct: 1 μM FSBA-MEK and 20 nM V600E full-length B-Raf; made in house; host or cells: sf9 insect cells (baculovirus)
Assay: B-Raf IC50 Assay (B-RAF V600E inhibition assay, Example A)
Assay type: biochemical
Excerpt: Determining the activity of Raf in the sample is possible by a number of direct and indirect detection methods (US 2004/0082014). Activity of human recombinant B-Raf protein may be assessed in vitro by assay of the incorporation of radio labeled phosphate to recombinant MAP kinase (MEK), a known physiologic substrate of B-Raf, according to US 2004/0127496 and WO 03/022840. The activity/inhibition of V600E full-length B-Raf was estimated by measuring the incorporation of radio labeled phosphate from [γ-33P]ATP into FSBA-modified wild-type MEK (see Example A).
Activity of human recombinant B-Raf protein may be assessed in vitro by assay of the incorporation of radio labeled phosphate to recombinant MAP kinase (MEK), a known physiologic substrate of B-Raf, according to U.S. Patent Appl. Publication No. 2004/0127496 and WO 03/022840. Catalytically active human recombinant B-Raf protein is obtained by purification from sf9 insect cells infected with a human B-Raf recombinant baculovirus expression vector.
The activity/inhibition of V600E full-length B-Raf was estimated by measuring the incorporation of radio labeled phosphate from [γ-33P]ATP into FSBA-modified wild-type MEK. The […] assay mixtures contained 25 mM Na Pipes, pH 7.2, 100 mM KCl, 10 mM MgCl2, 5 mM β-glycerophosphate, 100 μM Na Vanadate, 4 μM ATP, 500 nCi [γ-33P]ATP, 1 μM FSBA-MEK and 20 nM V600E full-length B-Raf. Incubations were carried out at 22° C. in a Costar 3365 plate (Corning). Prior to the assay, the B-Raf and FSBA-MEK were preincubated together in assay buffer at 1.5× (20 μL of 30 nM and 1.5 μM, respectively) for 15 minutes, and the assay was initiated by the addition of 10 μL of […]. Following the 60-minute incubation, the assay mixtures were quenched by the addition of 100 μL of 25% TCA, the plate was mixed on a rotary shaker for 1 minute, and the product was captured on a Perkin-Elmer GF/B filter plate using a Tomtec Mach III Harvester. After sealing the bottom of the plate, 35 μL of Bio-Safe II (Research Products International) scintillation cocktail were added to each well and the plate was top-sealed and counted in a Topcount NXT (Packard).

[1] = B-Raf V600E assay of Example A: less than 100 nM, read-out: IC50
[2] = B-Raf V600E assay of Example A: less than about 1 μM, read-out: IC50
[3] = incorporation of radio labeled phosphate from [γ-33P]ATP into FSBA-modified wild-type MEK, 4 μM ATP, 20 nM V600E full-length B-Raf, 60-minute incubation, 22° C., read-out: BRAF V600E IC50

T1 sequence (P15056 whole entry V600E): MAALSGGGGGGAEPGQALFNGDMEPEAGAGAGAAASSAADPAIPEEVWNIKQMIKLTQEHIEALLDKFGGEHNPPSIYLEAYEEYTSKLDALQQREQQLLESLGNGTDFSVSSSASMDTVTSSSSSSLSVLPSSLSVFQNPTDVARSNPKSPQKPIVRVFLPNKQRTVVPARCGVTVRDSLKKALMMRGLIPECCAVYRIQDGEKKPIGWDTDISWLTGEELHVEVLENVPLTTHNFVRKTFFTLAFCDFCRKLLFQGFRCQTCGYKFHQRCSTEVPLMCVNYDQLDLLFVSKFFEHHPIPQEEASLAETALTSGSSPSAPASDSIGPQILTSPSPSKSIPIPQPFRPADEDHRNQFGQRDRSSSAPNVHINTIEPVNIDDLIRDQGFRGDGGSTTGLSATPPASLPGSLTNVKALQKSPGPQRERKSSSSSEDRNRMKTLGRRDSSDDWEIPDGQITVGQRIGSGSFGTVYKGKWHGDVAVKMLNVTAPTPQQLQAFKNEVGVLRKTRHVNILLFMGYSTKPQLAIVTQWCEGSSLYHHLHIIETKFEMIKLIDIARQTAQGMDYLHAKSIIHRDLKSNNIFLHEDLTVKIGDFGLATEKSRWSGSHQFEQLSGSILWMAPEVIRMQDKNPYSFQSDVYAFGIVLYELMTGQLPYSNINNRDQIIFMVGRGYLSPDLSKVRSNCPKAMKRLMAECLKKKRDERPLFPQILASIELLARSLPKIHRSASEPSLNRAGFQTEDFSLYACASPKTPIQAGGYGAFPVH

With `CCCS(=O)(=O)Nc1ccc(F)c(NC(=O)c2cn(C)c3c(N)ncnc23)c1F` [Example 1, 4-amino-5-methyl-pyrrolo[3,2-d]pyrimidine-7-carboxylic acid[2,6-difluoro-3-(propane-1-sulfonylamino)-phenyl]-amide] the IC50 [1] was under 100 nM, the IC50 [2] was under 1000 nM and the IC50 [3] was 18.4 nM.

`CCS(=O)(=O)Nc1ccc(F)c(NC(=O)c2csc3c(N)ncnc23)c1F` [Example 2, 4-Amino-thieno pyrimidine-7-carboxylic acid (3-ethanesulfonylamino-2,6-difluoro-phenyl)-amide] was tested, and the IC50 [1] was under 100 nM, the IC50 [2] was under 1000 nM and the IC50 [3] was 12 nM.

`CCS(=O)(=O)Nc1ccc(Cl)c(NC(=O)c2csc3c(N)ncnc23)c1F` [Example 3, 4-Amino-thieno[3,2-d] pyrimidine-7-carboxylic acid (6-chloro-3-ethane-sulfonylamino-2-fluoro-phenyl)-amide] was tested, and the IC50 [1] was under 100 nM, the IC50 [2] was under 1000 nM and the IC50 [3] was 3.89 nM.

Work on `CCS(=O)(=O)Nc1ccc(F)c(NC(=O)c2csc3c(N)ncnc23)c1Cl` [Example 4, 4-Amino-thieno[3,2-d] pyrimidine-7-carboxylic acid (2-chloro-3-ethane-sulfonylamino-6-fluoro-phenyl)-amide] yielded an IC50 [1] of under 100 nM, an IC50 [2] of under 1000 nM and an IC50 [3] of 4.25 nM.

`CCCS(=O)(=O)Nc1ccc(F)c(NC(=O)c2csc3c(N)ncnc23)c1Cl` [Example 5, 4-Amino-thieno[3,2-d] pyrimidine-7-carboxylic acid [2-chloro-6-fluoro-3-(propane-1-sulfonyl-amino)-phenyl]-amide] showed an IC50 [1] of under 100 nM, an IC50 [2] of under 1000 nM and an IC50 [3] of 0.86 nM.

For `CCCS(=O)(=O)Nc1ccc(F)c(NC(=O)c2csc3c(N)ncnc23)c1F` [Example 6, 4-Amino-thieno[3,2-d] pyrimidine-7-carboxylic acid [2,6-difluoro-3-(propane-1-sulfonylamino)-phenyl]-amide], the IC50 [1] was under 100 nM, the IC50 [2] was under 1000 nM and the IC50 [3] was 2.89 nM.

`CCCS(=O)(=O)Nc1ccc(Cl)c(NC(=O)c2csc3c(N)ncnc23)c1F` [Example 7, 4-Amino-thieno[3,2-d] pyrimidine-7-carboxylic acid [6-chloro-2-fluoro-3-(propane-1-sulfonyl-amino)-phenyl]-amide] was tested, and the IC50 [1] was under 100 nM, the IC50 [2] was under 1000 nM and the IC50 [3] was 1.01 nM.

Compound `CC(C)CS(=O)(=O)Nc1ccc(F)c(NC(=O)c2csc3c(N)ncnc23)c1Cl` [Example 8, 4-Amino-thieno[3,2-d]pyrimidine-7-carboxylic acid[2-chloro-6-fluoro-3-(2-methyl-propane-1-sulfonylamino)-phenyl]-amide] has an IC50 [1] of under 100 nM, an IC50 [2] of under 1000 nM and an IC50 [3] of 0.6 nM.

For `CCCS(=O)(=O)Nc1ccc(Cl)c(NC(=O)c2csc3c(N)ncnc23)c1Cl` [Example 9, 4-Amino-thieno[3,2-d]pyrimidine-7-carboxylic acid[2,6-dichloro-3-(propane-1-sulfonylamino)-phenyl]-amide], the IC50 [1] was under 100 nM, the IC50 [2] was under 1000 nM and the IC50 [3] was 0.1 nM.

With `Nc1ncnc2c(C(=O)Nc3c(F)c(F)cc(NS(=O)(=O)CCCF)c3F)csc12` [Example 10, 4-Amino-thieno[3,2-d]pyrimidine-7-carboxylic acid[2,3,6-trifluoro-5-(3-fluoro-propane-1-sulfonylamino)-phenyl]-amide] the IC50 [1] was under 100 nM, the IC50 [2] was under 1000 nM and the IC50 [3] was 0.72 nM.

`Nc1ncnc2c(C(=O)Nc3c(F)ccc(NS(=O)(=O)c4ccccc4)c3F)csc12` [Example 11, 4-Amino-thieno[3,2-d]pyrimidine-7-carboxylic acid (3-benzenesulfonylamino-2,6-difluoro-phenyl)-amide] showed an IC50 [1] of under 100 nM, an IC50 [2] of under 1000 nM and an IC50 [3] of 0.89 nM.

`Nc1ncnc2c(C(=O)Nc3c(F)ccc(NS(=O)(=O)c4ccco4)c3F)csc12` [Example 12, 4-Amino-thieno[3,2-d]pyrimidine-7-carboxylic acid[2,6-difluoro-3-(furan-2-sulfonylamino)-phenyl]-amide] showed an IC50 [1] of under 100 nM, an IC50 [2] of under 1000 nM and an IC50 [3] of 0.22 nM.

Work on `Nc1ncnc2c(C(=O)Nc3c(Cl)ccc(NS(=O)(=O)CCCF)c3F)csc12` [Example 13, 4-Amino-thieno[3,2-d]pyrimidine-7-carboxylic acid[6-chloro-2-fluoro-3-(3-fluoro-propane-1-sulfonylamino)-phenyl]-amide] yielded an IC50 [1] of under 100 nM, an IC50 [2] of under 1000 nM and an IC50 [3] of 0.1 nM.

Work on `Nc1ncnc2c(C(=O)Nc3c(F)ccc(NS(=O)(=O)CCCF)c3F)csc12` [Example 14, 4-Amino-thieno[3,2-d] pyrimidine-7-carboxylic acid [2,6-difluoro-3-(3-fluoro-propane-1-sulfonylamino)-phenyl]-amide] yielded an IC50 [1] of under 100 nM, an IC50 [2] of under 1000 nM and an IC50 [3] of 0.6 nM.

`Nc1ncnc2c(C(=O)Nc3c(F)ccc(NS(=O)(=O)CCCF)c3Cl)csc12` [Example 15, 4-Amino-thieno[3,2-d] pyrimidine-7-carboxylic acid [2-chloro-6-fluoro-3-(3-fluoro-propane-1-sulfonylamino)-phenyl]-amide] gave an IC50 [1] of under 100 nM, an IC50 [2] of under 1000 nM and an IC50 [3] of 0.2 nM.

In the case of `Nc1ncnc2c(C(=O)Nc3c(F)ccc(NS(=O)(=O)CC4CC4)c3Cl)csc12` [Example 16, 4-Amino-thieno[3,2-d] pyrimidine-7-carboxylic acid (2-chloro-3-cycloprop-ylmethanesulfonyl-amino-6-fluoro-phenyl)-amide], the IC50 [1] is reported as under 100 nM, the IC50 [2] is reported as under 1000 nM and the IC50 [3] is reported as 1.9 nM.

`CCCS(=O)(=O)Nc1cc(F)cc(NC(=O)c2csc3c(N)ncnc23)c1Cl` [Example 17, 4-Amino-thieno[3,2-d] pyrimidine-7-carboxylic acid [2-chloro-5-fluoro-3-(propane-1-sulfonyl-amino)-phenyl]-amide] gave an IC50 [1] of under 100 nM, an IC50 [2] of under 1000 nM and an IC50 [3] of 1.4 nM.

For `Nc1ncnc2c(C(=O)Nc3c(F)ccc(NS(=O)(=O)CC4CC4)c3F)csc12` [Example 18, 4-Amino-thieno[3,2-d] pyrimidine-7-carboxylic acid (3-cyclopropyl-methanesulfonyl-amino-2,6-di-fluoro-phenyl)-amide], the IC50 [1] was under 100 nM, the IC50 [2] was under 1000 nM and the IC50 [3] was 7.4 nM.

`CC(C)CS(=O)(=O)Nc1ccc(F)c(NC(=O)c2csc3c(N)ncnc23)c1F` [Example 19, 4-Amino-thieno[3,2-d] pyrimidine-7-carboxylic acid [2,6-difluoro-3-(2-methyl-propane-1-sulfonylamino)-phenyl]-amide] showed an IC50 [1] of under 100 nM, an IC50 [2] of under 1000 nM and an IC50 [3] of 2.6 nM.

For `CCCS(=O)(=O)Nc1cc(F)cc(NC(=O)c2csc3c(N)ncnc23)c1F` [Example 20, 4-Amino-thieno[3,2-d] pyrimidine-7-carboxylic acid [2,5-difluoro-3-(propane-1-sulfonyl-amino)-phenyl]-amide], the IC50 [1] was under 100 nM, the IC50 [2] was under 1000 nM and the IC50 [3] was 5.7 nM.

`CCCS(=O)(=O)Nc1cc(Cl)cc(NC(=O)c2csc3c(N)ncnc23)c1F` [Example 21, 4-Amino-thieno[3,2-d] pyrimidine-7-carboxylic acid [5-chloro-2-fluoro-3-(propane-1-sulfonyl-amino)-phenyl]-amide] showed an IC50 [1] of under 100 nM, an IC50 [2] of under 1000 nM and an IC50 [3] of 47.1 nM.
